Data taken from BindingDB's records for doi:10.1016/s0960-894x(03)00491-8 (Central Drug Research Institute, 2003).

Biological target: Beta-3 adrenergic receptor (Homo sapiens, UniProt P13945)
Assay: In vitro effective concentration against beta-3 adrenergic receptor.

Sequence of Beta-3 adrenergic receptor (P13945 whole entry): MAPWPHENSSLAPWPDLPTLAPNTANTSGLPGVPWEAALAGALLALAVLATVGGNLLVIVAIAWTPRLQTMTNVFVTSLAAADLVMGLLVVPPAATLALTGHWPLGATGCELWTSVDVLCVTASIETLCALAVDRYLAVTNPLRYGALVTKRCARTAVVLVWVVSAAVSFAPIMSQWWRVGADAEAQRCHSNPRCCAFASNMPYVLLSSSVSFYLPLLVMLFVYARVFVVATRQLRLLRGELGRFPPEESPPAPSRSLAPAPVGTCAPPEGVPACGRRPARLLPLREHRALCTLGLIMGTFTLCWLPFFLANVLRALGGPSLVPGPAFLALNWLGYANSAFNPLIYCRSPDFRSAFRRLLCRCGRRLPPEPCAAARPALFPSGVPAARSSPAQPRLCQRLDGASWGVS

| EC50 | Structure (SMILES) |
| --- | --- |
| 3.63 nM | CCCCCCn1cc(O)n(-c2ccc(S(=O)(=O)Nc3ccc(CCNC[C@H](O)c4cccnc4)cc3)cc2)c1=O [4-(3-Hexyl-2,5-dioxo-imidazolidin-1-yl)-N-{4-[2-(2-hydroxy-2-pyridin-3-yl-ethylamino)-ethyl]-phenyl}-benzenesulfonamide] |
| 63.1 nM | CCCCCCCCn1cc(O)n(-c2ccc(S(=O)(=O)Nc3ccc(CCNC[C@H](O)c4cccnc4)cc3)cc2)c1=O [N-{4-[2-((R)-2-Hydroxy-2-pyridin-3-yl-ethylamino)-ethyl]-phenyl}-4-(3-octyl-2,5-dioxo-imidazolidin-1-yl)-benzenesulfonamide] |
| 77.6 nM | CCCCCCn1c(O)cn(-c2ccc(S(=O)(=O)Nc3ccc(CCNC[C@H](O)c4cccnc4)cc3)cc2)c1=O [4-(3-Hexyl-2,4-dioxo-imidazolidin-1-yl)-N-{4-[2-(2-hydroxy-2-pyridin-3-yl-ethylamino)-ethyl]-phenyl}-benzenesulfonamide] |
